Assay results taken from article PMC4626215, “Esculentin-2CHa-Related Peptides Modulate Islet Cell Function and Improve Glucose Tolerance in Mice with Diet-Induced Obesity and Insulin Resistance” (PLoS ONE, 2015).
Bridges are numbered along the chain shown (N, C = ends). Where no end group is shown, it is not given here.

Assays:
[1] = test system: BRIN-BD11 rat clonal β-cells; experiment: In vitro insulin release from BRIN-BD11 cells; format: cell-based; conditions: 5.6 mM glucose
Experimental: (§4) In vitro insulin-releasing effects of esculentin-2CHa and its analogues were assessed using BRIN-BD11 rat clonal β-cells and mouse islets. In the first set of experiments, BRIN-BD11 cells were incubated with the peptides in the concentration range (1 pM– 3 μM) in Krebs-Ringer bicarbonate buffer containing 5.6 mM glucose for 20 min at 37°C as previously described [15–17]. Insulin-releasing effects were also assessed using buffer supplemented with 1.4 and 16.7mm glucose concentrations and with established modulators of insulin release as previously described [15–17]. In a second set of experiments, islets from NIH Swiss mice, isolated by collagenase digestion [18, 19], were incubated with a range of concentrations of esculentin-2CHa or its analogues (0.1 nM– 1 μM) for 1 h in Krebs-Ringer bicarbonate (KRB) buffer supplemented with 1.4, 5.6 or 16.7 mM glucose. Following test incubations, aliquots of buffer were retrieved and stored at -20°C for measurement of insulin by radioimmunoassay [20].

[2] = test system: islets from NIH Swiss mice; experiment: In vitro insulin release from isolated mouse islets; format: cell-based; conditions: 16.7 mM glucose
Experimental: as §4

BRIN-BD11 cells [3] = conditions: 3 μM peptide (highest concentration); mean ± SEM, n = 8
Experimental: In vitro insulin-releasing effects of esculentin-2CHa and its analogues were assessed using BRIN-BD11 rat clonal β-cells and mouse islets. In the first set of experiments, BRIN-BD11 cells were incubated with the peptides in the concentration range (1 pM– 3 μM) in Krebs-Ringer bicarbonate buffer containing 5.6 mM glucose for 20 min at 37°C as previously described. Insulin-releasing effects were also assessed using buffer supplemented with 1.4 and 16.7mm glucose concentrations and with established modulators of insulin release as previously described. In a second set of experiments, islets from NIH Swiss mice, isolated by collagenase digestion, were incubated with a range of concentrations of esculentin-2CHa or its analogues (0.1 nM– 1 μM) for 1 h in Krebs-Ringer bicarbonate (KRB) buffer supplemented with 1.4, 5.6 or 16.7 mM glucose. Following test incubations, aliquots of buffer were retrieved and stored at -20°C for measurement of insulin by radioimmunoassay. In the experiments with BRIN-BD11 cells, the release of lactate dehydrogenase (LDH) was measured as an indicator of the integrity of the plasma membrane using commercially available CytoTox 96 non-radioactive cytotoxicity assay kit (Promega, Madison, WI, USA) according to the manufacturer’s recommended protocol.

BRIN-BD11 cells [4] = experiment: Membrane potential, FLIPR membrane assay kit; format: cell-based, rat; conditions: 1 μM peptide, 5 min; mean ± SEM, n = 8
Experimental: (§1) Effects of esculentin-2CHa (1 μM) and its analogues on membrane potential and [Ca^2+]i in BRIN-BD11 cells over a period of 5 min were assessed using commercially available FLIPR membrane or calcium assay kit (Molecular Devices, USA) as previously described. Data were captured using a Flexstation 3 microplate reader equipped with automatic fluid transfer unit (Molecular Devices, USA).

BRIN-BD11 cells [5] = experiment: Intracellular calcium ([Ca2+]i), FLIPR calcium assay kit; format: cell-based, rat; conditions: 1 μM peptide, 5 min; mean ± SEM, n = 8
Experimental: as §1

high fat fed mice [6] = experiment: Acute in vivo glucose tolerance and insulin release; design: species or system mouse
Experimental: (§2) Male National Institutes of Health (NIH) Swiss mice (Harlan Ltd, UK) were housed separately in an air-conditioned room (22 ± 2°C) with relative humidity of 51 ± 5% and a 12-hour light: 12-hour dark cycle and maintained on a high fat diet containing 45% fat, 20% protein and 35% carbohydrate (total energy 19.5 kJ/g, Dietex International Ltd, Witham, UK) for 120 days. Mice maintained on standard rodent diet containing 10% fat, 30% protein and 60% carbohydrates (total energy 12.99 kJ/g) were used as controls. Both groups of animals were allowed food and water ad libitum. All animal experiments were carried out in accordance with the UK Animals (Scientific Procedures) Act 1986 and EU Directive 2010/63EU for animal experiments. The study was approved by University of Ulster Research Ethics Committee.
For acute in vivo studies, overnight fasted, high fat fed mice (n = 8) received an intraperitoneal injection of glucose alone (18 mmol/kg body weight) or in combination with esculentin-2CHa or its analogues (75 nmol/kg body weight). This peptide dose was selected on the basis of a pilot study that examined acute effects of different doses of esculentin-2CHa on glucose tolerance in lean mice. Blood samples were collected as described previously before injection and at times indicated in the Figures for the measurement of plasma glucose and insulin concentrations.
(§3) Pancreatic tissues were homogenized in 20 mM Tris-HCl, 150 mM NaCl, 1 mM EDTA, 1 mM EGTA and 0.5% Triton X 100; pH 7.5 as previously described. Blood samples (approximately 150 μl), collected from the cut tip of the tail vein of unanesthetized mice at intervals indicated in the Figures were used for blood glucose measurements and determination of plasma insulin as previously described. Blood glucose was measured using a hand-held Ascencia Contour meter (Bayer Healthcare, UK). Plasma and pancreatic insulin were determined by radioimmunoassay. Plasma and pancreatic glucagon contents were determined by ELISA using commercially available kit (Millipore, MA, USA). Plasma creatinine, alanine transaminase (ALT), aspartic acid transaminase (AST) and alkaline phosphatase (ALP) were measured using commercially available kits (Randox Laboratories, UK) as indicators of renal and liver function. Plasma triglyceride and cholesterol concentrations were measured using an automated clinical chemistry analyser (I-lab 650, and reagents purchased from Instrumentation Laboratory (Warrington, UK). The assay kit for cholesterol was obtained from Randox Laboratories (Antrim, UK). Estimation of LDL cholesterol concentrations was achieved using the Friedewald equation as described previously.

high fat fed mice [7] = experiment: Longer-term (28 day) in vivo study; design: species or system mouse; Reduction of pancreatic glucagon / Reduction of plasma glucagon / Reduction of total islet area / Reduction of beta cell area / Reduction of alpha cell area: concentration or dose not given beside the values
Experimental: as §2
High-fat fed mice with clearly manifested features of obesity and hyperglycaemia received twice daily injections of either saline vehicle (0.9% (w/v) (high fat fed controls) or [L28K]esculentin-2CHa (75 nmol/kg body weight) for 28 days. This peptide was chosen based on its potent in vitro and acute in vivo actions. Mice (n = 8) fed standard rodent diet and injected with saline were used as lean controls. Energy intake, bodyweight, non-fasting blood glucose and plasma insulin concentrations were monitored every 72 h throughout the duration of the study. At the end of the 28 day treatment period, glucose tolerance (18 mmol/kg body weight, intraperitoneal or oral, overnight fasted) and insulin sensitivity (25 U/kg body weight) were assessed as previously described. Indirect calorimetry and energy expenditure in treated and control mice were measured using the Comprehensive Laboratory Animal Monitoring System (CLAMS) metabolic chambers (Columbus Instruments, Columbus, OH, USA). Total body lean and fat mass, bone mineral density and bone mineral content were also measured using DXA scanning (Piximus Densitometer, USA). Improvement in beta cell function in [L28K]esculentin-2CHa-treated and control mice were evaluated from the insulin secretory responses of islets isolated from these animals to established insulin secretagogues and incretin hormones (16.7 mM glucose, 1 μM GLP-1, 1 μM GIP, 10 mM alanine, 10 mM arginine and 30 mM KCl). Changes in islet morphology were assessed using pancreatic tissues excised from mice treated with [L28K]esculentin-2CHa or saline for 28 days as previously described.
as §3

[8] = ip glucose 18 mmol/kg with peptide 75 nmol/kg, AUC 0-60 min, mean ± SEM, n = 8
[9] = peptide 75 nmol/kg ip with glucose 18 mmol/kg
[10] = 75 nmol/kg twice daily, 28 days
[11] = after 28 days treatment, ip glucose 18 mmol/kg
[12] = after 28 days treatment, oral glucose 18 mmol/kg

Sequence: GFSSIFRGVAKFASKGLGKDLAKLGVDKVACKISKQC (disulfide 31-37 (inferred)) [[L28K]Esculentin-2CHa, substituted analogue of esculentin-2CHa chosen for 28 day study]
- Stimulatory effect on insulin release at 3 μM compared with native peptide ([1]; 3 μM): greater
- BRIN-BD11 cells (Threshold concentration) ([1]; minimum concentration producing a significant increase in rate of insulin release, 20 min, 37°C, n = 8): 10 pM
- Stimulation of insulin release from islets, fold of basal ([2]; 1 μM, 1 h): 3.4 fold
- Mouse islets (Threshold concentration) ([2]; insulin release, 1 h incubation, n = 8): 1 nM
- LDH release (% of control) (BRIN-BD11 cells [3]): 101.8±1.5 % of control
- Membrane potential (AUC, x 10^3 RFU) (BRIN-BD11 cells [4]): 7.78±0.22 x 10^3 RFU
- Intracellular Ca2+ (AUC, x 10^2 RFU) (BRIN-BD11 cells [5]): 7.28±0.94 x 10^2 RFU
- Plasma glucose (AUC) (high fat fed mice [6]; [8]): 327.61±36.87 ^, Δ mmol/l.min
- Plasma insulin (AUC) (high fat fed mice [6]; [8]): 262.81±30.56 ^,ΔΔΔ ng/ml.min
- Decrease of plasma glucose AUC versus glucose alone (high fat fed mice [6]; [9]): 52%
- Stimulation of insulin response relative to that with esculentin-2CHa (high fat fed mice [6]; [9]): 2.8 fold
- Body weight (high fat fed mice [7]; [10]): did not affect
- Food intake (high fat fed mice [7]; [10]): did not affect
- Increase in non-fasting plasma insulin versus saline-treated controls (high fat fed mice [7]; [10]): 42%
- Reduction in non-fasting plasma glucose versus saline-treated controls (high fat fed mice [7]; [10]): 25%
- Adverse effects (high fat fed mice [7]; 28 days treatment): no adverse effects were observed
- Decrease in plasma creatinine (high fat fed mice [7]; 28 days treatment): 40%
- Number of islets per mm^2 of pancreas (high fat fed mice [7]; 28 days treatment): did not affect
- Plasma HDL cholesterol (high fat fed mice [7]; 28 days treatment): no effect
- Plasma triglycerides (high fat fed mice [7]; 28 days treatment): decreased
- Reduction of alpha cell area (high fat fed mice [7]; 28 days treatment): 48%
- Reduction of beta cell area (high fat fed mice [7]; 28 days treatment): 43%
- Reduction of total islet area (high fat fed mice [7]; 28 days treatment): 44%
- Total pancreatic insulin content (greater in high fat fed mice) (high fat fed mice [7]; 28 days treatment): reversed
- O2 consumption, CO2 production, energy expenditure and respiratory exchange ratio (high fat fed mice [7]; 28 days treatment, CLAMS metabolic chambers): not affected
- Bone area (high fat fed mice [7]; 28 days treatment, DXA): reversed the loss
- Reduction of pancreatic glucagon (high fat fed mice [7]; 28 days treatment, ELISA): 20%
- Reduction of plasma glucagon (high fat fed mice [7]; 28 days treatment, ELISA): 35%
- Insulin sensitivity (high fat fed mice [7]; after 28 days treatment, insulin 25 U/kg ip): no significant effect
- Improvement of glucose AUC 0–60 min, intraperitoneal glucose tolerance (high fat fed mice [7]; [11]): 20%
- Improvement of insulin AUC 0–60 min, intraperitoneal glucose (high fat fed mice [7]; [11]): 66%
- Improvement of glycaemic excursion following oral glucose (high fat fed mice [7]; [12]): 23%
- Improvement of insulin response following oral glucose (high fat fed mice [7]; [12]): 68%
- Insulin-secretory responses of isolated islets to secretagogues (high fat fed mice [7]; islets from mice treated 28 days, glucose, GLP-1, GIP, alanine, arginine, KCl): restored
